Measurements taken from patent US20260015311A1, “AMINO LIPID COMPOUND, PREPARATION METHOD THEREFOR, AND USE THEREOF” (SHENZHEN SHENXIN BIOTECHNOLOGY CO., LTD., priority 2022, published 2026).

Key:
[1] = tested on: Fluc mRNA; experiment: Activity of lipid nanoparticles of formulation method 2, Fluc mRNA by intramuscular administration; assay type: in vivo, BALB/c mice
Protocol: (§1) The formulation method was the same as the formulation method 1, except that the molar ratio of the amino lipid compounds to DSPC, cholesterol and PEG2000-DMG was 50:10:38.5:1.5.
(§2) 9 mice were assigned randomly to each group and injected with the lipid nanoparticles at a dosage of 0.5 mg/kg by three administration routes, i.e., subcutaneous, intramuscular and tail vein injection (three mice for each administration route). After 12 hours, D-luciferin potassium salt (200 μL, 10 mg/mL) was injected into each mouse through the tail vein. After 10 minutes, the total fluorescence intensity of each mouse was observed on a living imaging system (IVIS-200, Xenogen) and taken photographs for record. The expression intensities of Fluc mRNA delivered by representative amino lipid compounds through the three administration routes are shown in Table 2-4. MC3 was used as a control and SM102 was used as a comparative compound.
Preparation of Lipid Nanoparticles: LNPs were Prepared Using the Formulation Method 2 for Intramuscular Administration.
The measurement method was the same as that of Test Example 1.

[2] = tested on: Fluc mRNA; experiment: In vivo delivery of luciferase mRNA (Fluc mRNA) by lipid nanoparticles, living imaging; design: species or system BALB/c mice; conditions: after 12 hours, total fluorescence
Protocol: (§3) The amino lipid compounds of the present disclosure were mixed with DOPE, cholesterol, and PEG2000-DMG in a molar ratio of 45:10:42.5:2.5 and dissolved in absolute ethanol. By using a microinjection pump, the resultant ethanol solution and a sodium acetate solution (50 mM, pH=4.0) were mixed in a ratio of 1:3 in a microfluidic chip to prepare a crude solution of lipid nanoparticles, which were then dialyzed in 1×PBS at a controlled temperature of 4° C. for 6 h using a dialysis box (Fisher, MWCO 20,000), and filtered through a 0.22 μm microporous filter membrane before use.
as §1
The lipid nanoparticles prepared according to the above formulation method 1 or 2 were used in the biological experiments below for evaluating the performances of in vivo delivery of luciferase mRNA (Fluc mRNA). For the lipid nanoparticles obtained in the formulation method 1, the mass ratio of the amino lipid compounds to the luciferase mRNA was about 10:1, and the lipid nanoparticles were administered subcutaneously; and the lipid nanoparticles obtained in the formulation method 2 were administered by tail vein and intramuscular injection.
6-week-old female BALB/c mice weighed about 20 g were selected and fed in a SPF-grade feeding room. Animal tests were conducted strictly according to the guidelines of National Health institutions and the requirements of animal ethics.
as §2

[3] = Stability of lipid nanoparticles at 25° C., DLS particle size and PDI; assay type: physicochemical
Protocol: as §3
(§4) Preparation of Lipid Nanoparticles: The Formulation Method 1 was Used to Prepare LNPs for Subcutaneous Administration.
Characterization of lipid nanoparticles: The particle size and PDI of the prepared lipid nanoparticles were measured by Nano-ZSZEN 3600 (Malvern). 40 μL of the LNP solution was taken for particle size measurement with circulation for three times, 30 seconds for each circulation.
(§5) The particle size measurements were carried out on the day of preparation (week 0), and after one week (week 1), two weeks (week 2), and four weeks (week 4) of storage at 25° C., and the expression intensities of Fluc mRNA delivered by subcutaneous administration were determined on the day of preparation (week 0) and after four weeks (week 4).

[4] = tested on: Fluc mRNA; experiment: Stability of lipid nanoparticles at 25° C., subcutaneous expression of Fluc mRNA; assay type: in vivo, mice
Protocol: as §3, §2, §4, §5

[5] = tested on: liver; experiment: Targeting assay, fluorescence in liver after intramuscular injection; assay type: in vivo, mice; conditions: 15 μg mRNA per animal, 6 h after injection, dissected liver
Protocol: The lipids were mixed with DSPC, CHO-HP, M-DMG2000 (i.e. PEG2000-DMG) in a molar ratio of 50:10:38.5:1.5 and dissolved in absolute ethanol. mRNA was dissolved in a sodium acetate solution (0.2M, pH=5.0). The samples of various prescriptions were prepared at a water phase:alcohol phase=9 ml/min: 3 ml/min by using a microfluidic equipment (MPE-L2) and a chip (SN.000035). The two phases were mixed by injecting them into the microfluidic chip according to the interface requirements, and then the drug solution was loaded into a 100KD dialysis bags, immersed in a beaker containing 1 L dialysis solution and wrapped with aluminum foil, and dialyzed at 100 rpm for 1 h at room temperature, and then the dialysis solution was replaced and the dialysis continued for 1 h.
Formulation of dialysis solution: 1×PBS+8% sucrose solution: 2 packets of 1×PBS powder were taken into a beaker, dissolved with 2 L DEPC water, added with 160 g of sucrose additionally, and mixed to obtain the 1×PBS+8% sucrose solution.
The mass ratio of mRNA:Lipids in the obtained lipid nanoparticles were about 1:10.
Fluorescent protein-encoding mRNA-LNP preparations containing Compound (I-6-II), MC3 or SM102, respectively were prepared by using the formulation method of mRNA lipid nanoparticle (LNP) preparations as described above, selecting a fluorescent protein-encoding mRNA as the mRNA and the compound (I-6-II), MC3 or SM102, respectively as the lipid.
Each preparation to be tested was administered to mice by intramuscular injection, with each animal receiving 15 μg mRNA preparation sample. 6 h after sample injection, the mice were anesthetized by isoflurane inhalation, and injected intraperitoneally with 200 μL of D-Luciferin (concentration 10 mg/ml) luciferase development substrate. […] After development of living imaging of the intramuscularly injected animals, they were immediately dissected, followed by observation of the fluorescence in the liver immediately after the dissection.

[6] = subcutaneous administration, formulation method 1, 0.5 mg/kg
[7] = intramuscular injection, formulation method 2, 0.5 mg/kg
[8] = tail vein administration, formulation method 2, 0.5 mg/kg

Structure (SMILES) | Fluorescence intensity (expression intensity of Fluc mRNA) [1] | Fluorescence intensity (expression intensity of Fluc mRNA) [2, 6] | Fluorescence intensity (expression intensity of Fluc mRNA) [2, 7] | Fluorescence intensity (expression intensity of Fluc mRNA) [2, 8] [E + 06] | also measured
CCCCCCCCCCCOC(=O)CCCCCN(CCCCCCCC(=O)OC(CCCCCCCC)CCCCCCCC)C1CCCCC1O (stereo not shown) [Comparative compound 3] | 2.9E + 05 |  |  |  | 
CCCCCCCCCOC(=O)CCCCCCCN(CCCCCCCC(=O)OC(CCCCCCCC)CCCCCCCC)C1CC(O)C1 (stereo not shown) [Compound 1] |  | 2.7E + 07 |  |  | 
CCCCCCCCCCCOC(=O)CCCCCCCN(CCCCCCCC(=O)OC(CCCCCCCC)CCCCCCCC)C1CCCC(C#N)C1 (stereo not shown) [Compound 17] |  |  | 6.2E + 06 |  | 
CCCCCCCCC(CCCCCC)OC(=O)CCCCCN(CCCCCCOC(=O)C(CCCCCC)CCCCCCCC)C1CCCC(O)C1 (stereo not shown) [Compound 15] |  | 4.7E + 07 | 1.8E + 07 | 3.5 | 
CCCCCCCCC(CCCCCC)OC(=O)CCCCCN(CCCCCC(=O)OC(CCCCCC)CCCCCCCC)C1CCCCC1O (stereo not shown) [Comparative compound 4] | 1.3E + 05 |  |  |  | 
CCCCCCCCC(CCCCCC)C(=O)OCCCCCCN(CCCCCCOC(=O)C(CCCCCC)CCCCCCCC)C1CCCC(O)C1 (stereo not shown) [Compound 14] |  |  | 8.2E + 06 | 4.1 | 
CCCCCCCCCOC(=O)CCCCCCCN(CCCCCCCC(=O)OC(CCCCCCCC)CCCCCCCC)C1CCC(O)CC1 (stereo not shown) [Comparative compound 6] | 1.9E + 07 |  |  |  | Fluorescence intensity (expression intensity of Fluc mRNA) ([1]; listed as comparative compound 6): 1.9E+07
CCCCCCCCCOC(=O)CCCCCCCN(CCO)CCCCCCCC(=O)OC(CCCCCCCC)CCCCCCCC [SM102, reference compound] |  | 2.4E + 07 | 4.6E + 07 | 7.4 | particle size ([3]; preparation day (week 0)): about 100 nm; Z-Average ([3]; week 0 (day of preparation)): 120 nm·days; PDI ([3]; week 1, storage at 25° C.): 0.16; Z-Average ([3]; week 1, storage at 25° C.): 145 nm·days; PDI ([3]; week 2, storage at 25° C.): 0.21; Z-Average ([3]; week 2, storage at 25° C.): 195 nm·days; PDI ([3]; week 4, storage at 25° C.): 0.28; Z-Average ([3]; week 4, storage at 25° C.): 245 nm·days; Fluc expression change after four weeks ([4]; 25° C., week 4 versus week 0): decreased significantly; Fluc Expression intensities ([4]; week 0, subcutaneous administration): 2.4E+07; Fluc Expression intensities ([4]; week 4, storage at 25° C., subcutaneous administration): 3.6E+06; fluorescence intensity in liver [5]: 3.23E+06
CCCCCCCCCOC(=O)CCCCCCCN(CCCCCCCC(=O)OC(CCCCCCCC)CCCCCCCC)C1CCCC(F)C1 (stereo not shown) [Compound 18] |  |  | 7.8E + 06 |  | 
CCCCCCCCCOC(=O)CCCCCCCN(CCCCCCCC(=O)OC(CCCCCCCC)CCCCCCCC)C1CCCC(OC)C1 (stereo not shown) [Compound 16] |  | 1.3E + 06 |  |  | 
